Data from patent publication US5843735A, “Aklavinone C-11 hydroxylase, gene coding for same, expression vector therefor, and process for preparing hybrid antibiotics by using said vector” (priority 1995, dated 1998).
Read-outs that look alike come from different tables or passages of the source.

Assays:
OVCAR-3 = assay: Anticancer activity, reduced human cancer cell line panel (NCI method), Ovarian Cancer; format: cell-based; conditions: OVCAR-3, read-out: Log10 LC50 (converted)
Procedure: (§1) The anticancer activities of aclacinomycin X, 11-hydroxy aclacinomycin X and 11-hydroxy aclacinomycin A were determined by using a reduced human cancer cell line panel(supplier: National Cancer Institute, U.S.A.) in accordance with the method of National Cancer Institute, U.S.A. (Monks, A., et al., J. Natl. Cancer Inst., 83, 757-766(1991)), and the results are shown in Table I.

SK-OV-3 = assay: as above; format: cell-based; conditions: SK-OV-3, read-out: Log10 LC50 (converted)
Procedure: as §1

HCC-2298 = assay: Anticancer activity, reduced human cancer cell line panel (NCI method), Colon Cancer; format: cell-based
Procedure: as §1

HT29 = assay: as above; format: cell-based
Procedure: as §1

SF-268 = assay: Anticancer activity, reduced human cancer cell line panel (NCI method), CNS Cancer; format: cell-based; conditions: SF-268, read-out: Log10 LC50 (converted)
Procedure: as §1

U251 = assay: as above; format: cell-based
Procedure: as §1

human cancer cell lines = assay: Anticancer / growth inhibiting activity against the human cancer cell line panel, overall; format: cell-based; conditions: for growth inhibiting activities compared with aclacinomycin A: various human cancer cell lines
Procedure: as §1

UO-31 = assay: Anticancer activity, reduced human cancer cell line panel (NCI method), Renal Cancer; format: cell-based; conditions: UO-31, read-out: Log10 LC50 (converted)
Procedure: as §1

786-0 = assay: as above; format: cell-based; conditions: 786-0, read-out: Log10 LC50 (converted)
Procedure: as §1

[1] = Solubility in organic solvents; conditions: methanol (MeOH), chloroform (CHCl3)
EKVX = assay: Anticancer activity, reduced human cancer cell line panel (NCI method), Non-Small Cell Lung Cancer; format: cell-based; conditions: read-out: Log10 LC50 (converted)
Procedure: as §1

A-549 = assay: as above; format: cell-based
Procedure: as §1

MDA-N = assay: Anticancer activity, reduced human cancer cell line panel (NCI method), Breast Cancer; format: cell-based; conditions: read-out: Log10 LC50 (converted)
Procedure: as §1

MCF7 = assay: as above; format: cell-based; conditions: MCF7, read-out: Log10 LC50 (converted)
Procedure: as §1

SK-MEL-2 = assay: Anticancer activity, reduced human cancer cell line panel (NCI method), Melanoma; format: cell-based; conditions: SK-MEL-2, read-out: Log10 LC50 (converted)
Procedure: as §1

MALME-3M = assay: as above; format: cell-based; conditions: read-out: Log10 LC50 (converted)
Procedure: as §1

PC-3 = assay: Anticancer activity, reduced human cancer cell line panel (NCI method), Prostate Cancer; format: cell-based; conditions: PC-3, read-out: Log10 LC50 (converted)
Procedure: as §1

DU-145 = assay: as above; format: cell-based; conditions: DU-145, read-out: Log10 LC50 (converted)
Procedure: as §1

K-562 = assay: Anticancer activity, reduced human cancer cell line panel (NCI method), Leukemia; format: cell-based
Procedure: as §1

HL-60 TB = assay: as above; format: cell-based; conditions: for LC50 (50% lethal concentration): Leukemia, HL-60 TB, read-out: Log10 LC50 (converted)
Procedure: as §1

[2] = HT-29, Colon Cancer, HT29, read-out: Log10 LC50 (converted)
[3] = U-251, CNS Cancer, U251, read-out: Log10 LC50 (converted)
[4] = A549, Non-Small Cell Lung Cancer, A-549, read-out: Log10 LC50 (converted)
[5] = K562, Leukemia, K-562, read-out: Log10 LC50 (converted)

Work on `CC[C@@]1(O)C[C@H](O[C@H]2C[C@H](N(C)C)[C@H](O[C@H]3C[C@H](O)[C@H](O[C@@H]4O[C@@H](C)C(=O)C=C4N)[C@H](C)O3)[C@H](C)O2)c2c(cc3c(c2O)C(=O)c2c(O)cccc2C3=O)[C@H]1C(=O)OC` [Aclacinomycin X, aclacinomycin X] yielded a CC50 (OVCAR-3; Ovarian Cancer) of over 100 µM, a CC50 (SK-OV-3; Ovarian Cancer) of over 100 µM and a CC50 (HCC-2298; Colon Cancer, HCC-2298, read-out: Log10 LC50 (converted)) of 0.191 µM. The CC50 (HT29; [2]) was 30.9 µM, the CC50 (SF-268; CNS Cancer) was 11.2 µM and the CC50 (U251; [3]) was 18.2 µM. For the same molecule, the selective anticancer activities (human cancer cell lines; colon cancer, melanoma and breast cancer cell lines) was “selective anticancer activities against colon cancer, melanoma and breast cancer cell lines”, the “growth inhibiting activities compared with aclacinomycin A” value (human cancer cell lines) was “higher growth inhibiting activities than aclacinomycin A” and the CC50 (UO-31; Renal Cancer) was 26.3 µM. For the same molecule, the LC50 (50% lethal concentration) (786-0; Renal Cancer) was 18.2 µM, the “dissolves easily (solubility)” value [1] was “dissolves easily in methanol or chloroform” and the CC50 (EKVX; Non-Small Cell Lung Cancer) was 18.6 µM. The LC50 (A-549; [4]) was 4.07 µM, the CC50 (MDA-N; Breast Cancer) was over 100 µM and the LC50 (50% lethal concentration) (MCF7; Breast Cancer) was 43.7 µM. The CC50 (SK-MEL-2; Melanoma) was 0.0525 µM, the LC50 (concentration killing 50% of cells) (MALME-3M; Melanoma, MALME-3M) was 0.562 µM and the LC50 (PC-3; Prostate Cancer) was 8.32 µM. For the same molecule, the LC50 (DU-145; Prostate Cancer) was 30.2 µM, the CC50 (K-562; [5]) was 60.3 µM and the LC50 (50% lethal concentration) (HL-60 TB) was 30.9 µM.
For `CC[C@@]1(O)C[C@H](O[C@H]2C[C@H](N(C)C)[C@H](O)[C@H](C)O2)c2c(O)c3c(c(O)c2[C@H]1C(=O)OC)C(=O)c1cccc(O)c1C3=O` [11-Hydroxy aclacinomycin T, 11-hydroxy aclacinomycin T], the “dissolves easily (solubility)” value [1] was “dissolves easily in MeOH or CHC13”.
`CC[C@@]1(O)C[C@H](O[C@H]2C[C@H](N(C)C)[C@H](O[C@H]3C[C@H](O)[C@H](O[C@@H]4O[C@@H](C)C(=O)C=C4N)[C@H](C)O3)[C@H](C)O2)c2c(O)c3c(c(O)c2[C@H]1C(=O)OC)C(=O)c1cccc(O)c1C3=O` [11-Hydroxy aclacinomycin X, 11-hydroxy aclacinomycin X] gave a CC50 (OVCAR-3; Ovarian Cancer) of over 100 µM, a CC50 (HT29; [2]) of 47.9 µM and a CC50 (SF-268; CNS Cancer) of over 100 µM. The CC50 (U251; [3]) was over 100 µM, the “anticancer activities compared with aclacinomycin X” value (human cancer cell lines; leukemia, melanoma and breast cancer cell lines) was “higher than aclacinomycin X” and the “growth inhibiting activities compared with aclacinomycin A” value (human cancer cell lines) was “higher growth inhibiting activities than aclacinomycin A”. For the same molecule, the CC50 (UO-31; Renal Cancer) was 15.5 µM, the LC50 (50% lethal concentration) (786-0; Renal Cancer) was 4.57 µM and the “dissolves easily (solubility)” value [1] was “dissolves easily in MeOH or CHCl3”. For the same molecule, the CC50 (EKVX; Non-Small Cell Lung Cancer) was 0.977 µM, the LC50 (A-549; [4]) was 21.4 µM and the CC50 (MDA-N; Breast Cancer) was over 100 µM. For the same molecule, the LC50 (50% lethal concentration) (MCF7; Breast Cancer) was 30.9 µM, the CC50 (SK-MEL-2; Melanoma) was under 0.01 µM and the LC50 (concentration killing 50% of cells) (MALME-3M; Melanoma, MALME-3M) was 0.0537 µM. For the same molecule, the LC50 (PC-3; Prostate Cancer) was 6.76 µM, the LC50 (DU-145; Prostate Cancer) was 41.7 µM and the CC50 (K-562; [5]) was 7.59 µM. The LC50 (50% lethal concentration) (HL-60 TB) was 0.234 µM.
In the case of `CC[C@@]1(O)C[C@H](O[C@H]2C[C@H](N(C)C)[C@H](O[C@H]3C[C@@H]4OC5CC(=O)C(C)OC5O[C@@H]4[C@H](C)O3)[C@H](C)O2)c2c(O)c3c(c(O)c2[C@H]1C(=O)OC)C(=O)c1cccc(O)c1C3=O` (stereo partly drawn) [11-hydroxy aclacinomycin B], the “dissolves easily (solubility)” value [1] is reported as “dissolves easily in MeOH and CHC13”.
`CC[C@@]1(O)C[C@H](O[C@H]2C[C@H](N(C)C)[C@H](O[C@H]3C[C@H](O)[C@H](O[C@H]4CCC(=O)[C@H](C)O4)[C@H](C)O3)[C@H](C)O2)c2c(O)c3c(c(O)c2[C@H]1C(=O)OC)C(=O)c1cccc(O)c1C3=O` [11-Hydroxy aclacinomycin A, 11-hydroxy aclacinomycin A] showed a CC50 (OVCAR-3) of 72.4 µM, a CC50 (SK-OV-3) of 38.9 µM and a CC50 (HCC-2298; read-out: Log10 LC50 (converted)) of under 0.01 µM. For the same molecule, the CC50 (HT29; HT-29, read-out: Log10 LC50 (converted)) was 12.9 µM, the CC50 (SF-268) was 79.4 µM and the CC50 (U251; U-251, read-out: Log10 LC50 (converted)) was 56.2 µM. The anticancer activity (human cancer cell lines; leukemia, colon cancer and melanoma cell lines) was “high anticancer activity”, the “growth inhibiting activities compared with aclacinomycin A” value (human cancer cell lines) was “higher growth inhibiting activities than aclacinomycin A” and the CC50 (UO-31) was 19.1 µM. The LC50 (50% lethal concentration) (786-0) was 8.32 µM, the “dissolves easily (solubility)” value [1] was “dissolves easily in MeOH or CHCL3” and the CC50 (EKVX) was 0.257 µM. For the same molecule, the LC50 (A-549; A549, read-out: Log10 LC50 (converted)) was 24.5 µM, the CC50 (MDA-N) was 100 µM and the LC50 (50% lethal concentration) (MCF7) was 25.1 µM. For the same molecule, the CC50 (SK-MEL-2) was under 0.01 µM, the LC50 (concentration killing 50% of cells) (MALME-3M; Malme-3M) was 0.0676 µM and the LC50 (PC-3) was 14.5 µM. The LC50 (DU-145) was 24.5 µM, the CC50 (K-562; K562, read-out: Log10 LC50 (converted)) was 1.78 µM and the CC50 (HL-60 TB; HL-60, read-out: Log10 LC50 (converted)) was under 0.01 µM.
